Values quoted from earlier work, collected in US20140271816A1, “TREATMENT OF POTENTIAL PLATELET AGGREGATION WITH LIPOSOMALLY FORMULATED GLUTATHIONE AND CLOPIDOGREL” (priority 2013, published 2014).
Like-named read-outs stand apart in the source and are kept apart here.

Legend:
[1] = rat; for toxin remaining: Co-60 in liver
[2] = humans, plain non-formulated glutathione
[3] = oral, 75 mg clopidogrel (base)

## CC(=O)N[C@@H](CS)C(=O)O [NAC, N-Acetyl cysteine]
Percent of the activity of GSH
  activity in forming the AM relative to GSH: less than 10%

## N[C@@H](CCC(=O)N[C@@H](CS)C(=O)NCC(=O)O)C(=O)O [Plain glutathione, reduced glutathione]
Ex vivo studies
  rank as reducing agent needed to form the active metabolites of clopidogrel: best reducing agent
[1]; intravenous administration
  toxin remaining: 36%
  removal of toxin / radiotagged marker (Co-60) from the liver: 64%
[1]; oral administration
  toxin remaining: 100%
  removal of toxin / radiotagged marker (Co-60) from the liver: 0%
[1]; oral administration, listed as plain GSH
  removal of toxin / radiotagged marker (Co-60) from the liver: no function
[2]; listed as glutathione
  absorption after oral administration: not absorbed well
[2]; listed as plain GSH
  absorption after oral administration: not absorbed
[2]; listed as plain glutathione
  absorption after oral administration: not absorbed

## COC(=O)[C@H](c1ccccc1Cl)N1CCc2sccc2C1 [Clopidogrel, clopidogrel]
[3]
  peak plasma levels of the main circulating metabolite: approx. 3 mg/L
[3]; main circulating metabolite
  time of peak plasma levels after dosing: approximately one
